Numbers after ± are expanded uncertainties.
Assay: xn = mol fraction of the nth substance listed
Settings: Liquid, Vibrating tube method

CCCCCCCCCC [decane] + CCCO
Settings	mass density [kg/m3]
313.15 K, 15010 kPa, x2 = 0.4326	740.1 ± 4.7
313.15 K, 15020 kPa, x2 = 0.8711	777.12 ± 5
313.15 K, 16000 kPa, x2 = 0.4326	740.87 ± 4.8
313.15 K, 16010 kPa, x2 = 0.1391	729.71 ± 4.7
313.15 K, 16010 kPa, x2 = 0.6863	757.68 ± 4.9
313.15 K, 16010 kPa, x2 = 0.8711	777.89 ± 5
313.15 K, 16020 kPa, x2 = 0.1907	731.41 ± 4.7
313.15 K, 16020 kPa, x2 = 0.3001	735.77 ± 4.7
313.15 K, 17000 kPa, x2 = 0.6863	758.44 ± 4.9
313.15 K, 17010 kPa, x2 = 0.1391	730.47 ± 4.7
313.15 K, 17020 kPa, x2 = 0.1907	732.18 ± 4.7
313.15 K, 17020 kPa, x2 = 0.3001	736.53 ± 4.7
313.15 K, 17020 kPa, x2 = 0.4326	741.63 ± 4.8
313.15 K, 17020 kPa, x2 = 0.8711	778.66 ± 5
313.15 K, 18000 kPa, x2 = 0.1391	731.21 ± 4.7
313.15 K, 18010 kPa, x2 = 0.3001	737.27 ± 4.7
313.15 K, 18010 kPa, x2 = 0.4326	742.38 ± 4.8
313.15 K, 18010 kPa, x2 = 0.6863	759.2 ± 4.9
313.15 K, 18010 kPa, x2 = 0.8711	779.44 ± 5
313.15 K, 18020 kPa, x2 = 0.1907	732.92 ± 4.7
313.15 K, 19000 kPa, x2 = 0.1391	731.93 ± 4.7
313.15 K, 19000 kPa, x2 = 0.1907	733.63 ± 4.7
313.15 K, 19000 kPa, x2 = 0.3001	738.01 ± 4.7
313.15 K, 19000 kPa, x2 = 0.6863	759.95 ± 4.9
313.15 K, 19020 kPa, x2 = 0.4326	743.13 ± 4.8
313.15 K, 19020 kPa, x2 = 0.8711	780.17 ± 5
313.15 K, 20000 kPa, x2 = 0.3001	738.71 ± 4.7
313.15 K, 20000 kPa, x2 = 0.4326	743.85 ± 4.8
313.15 K, 20010 kPa, x2 = 0.6863	760.69 ± 4.9
313.15 K, 20020 kPa, x2 = 0.1391	732.61 ± 4.7
313.15 K, 20020 kPa, x2 = 0.1907	734.34 ± 4.7
313.15 K, 20020 kPa, x2 = 0.8711	780.91 ± 5
323.15 K, 100 kPa, x2 = 0.1391	707.51 ± 4.5
323.15 K, 100 kPa, x2 = 0.1907	709.03 ± 4.5
323.15 K, 100 kPa, x2 = 0.3001	712.69 ± 4.6
323.15 K, 100 kPa, x2 = 0.4326	717.73 ± 4.6
323.15 K, 100 kPa, x2 = 0.6863	734.39 ± 4.7
323.15 K, 100 kPa, x2 = 0.8711	755.13 ± 4.8
323.15 K, 1000 kPa, x2 = 0.1907	709.9 ± 4.5
323.15 K, 1000 kPa, x2 = 0.6863	735.11 ± 4.7
323.15 K, 1010 kPa, x2 = 0.1391	708.44 ± 4.5
323.15 K, 1010 kPa, x2 = 0.3001	713.84 ± 4.6
323.15 K, 1010 kPa, x2 = 0.4326	718.54 ± 4.6
323.15 K, 1020 kPa, x2 = 0.8711	755.79 ± 4.8
323.15 K, 2000 kPa, x2 = 0.4326	719.49 ± 4.6
323.15 K, 2010 kPa, x2 = 0.1391	709.4 ± 4.5
323.15 K, 2010 kPa, x2 = 0.1907	710.86 ± 4.5
323.15 K, 2010 kPa, x2 = 0.3001	714.8 ± 4.6
323.15 K, 2020 kPa, x2 = 0.6863	736.08 ± 4.7
323.15 K, 2020 kPa, x2 = 0.8711	756.71 ± 4.8
323.15 K, 3000 kPa, x2 = 0.8711	757.64 ± 4.8
323.15 K, 3010 kPa, x2 = 0.1391	710.34 ± 4.5
323.15 K, 3010 kPa, x2 = 0.1907	711.79 ± 4.6
323.15 K, 3010 kPa, x2 = 0.4326	720.43 ± 4.6
323.15 K, 3010 kPa, x2 = 0.6863	737.03 ± 4.7
323.15 K, 3020 kPa, x2 = 0.3001	715.74 ± 4.6
323.15 K, 4000 kPa, x2 = 0.3001	716.68 ± 4.6
323.15 K, 4010 kPa, x2 = 0.4326	721.39 ± 4.6
323.15 K, 4010 kPa, x2 = 0.6863	737.97 ± 4.7
323.15 K, 4020 kPa, x2 = 0.1391	711.27 ± 4.6
323.15 K, 4020 kPa, x2 = 0.1907	712.75 ± 4.6
323.15 K, 4020 kPa, x2 = 0.8711	758.56 ± 4.9
323.15 K, 5000 kPa, x2 = 0.1391	712.19 ± 4.6
323.15 K, 5000 kPa, x2 = 0.3001	717.61 ± 4.6
323.15 K, 5000 kPa, x2 = 0.4326	722.33 ± 4.6
323.15 K, 5000 kPa, x2 = 0.8711	759.48 ± 4.9
323.15 K, 5020 kPa, x2 = 0.1907	713.66 ± 4.6
323.15 K, 5020 kPa, x2 = 0.6863	738.91 ± 4.7
323.15 K, 6000 kPa, x2 = 0.1391	713.11 ± 4.6
323.15 K, 6010 kPa, x2 = 0.1907	714.57 ± 4.6
323.15 K, 6010 kPa, x2 = 0.3001	718.54 ± 4.6
323.15 K, 6010 kPa, x2 = 0.4326	723.28 ± 4.6
323.15 K, 6010 kPa, x2 = 0.6863	739.85 ± 4.7
323.15 K, 6010 kPa, x2 = 0.8711	760.42 ± 4.9
323.15 K, 7000 kPa, x2 = 0.4326	724.2 ± 4.6
323.15 K, 7010 kPa, x2 = 0.1907	715.47 ± 4.6
323.15 K, 7010 kPa, x2 = 0.3001	719.46 ± 4.6
323.15 K, 7010 kPa, x2 = 0.8711	761.33 ± 4.9
323.15 K, 7020 kPa, x2 = 0.1391	714.02 ± 4.6
323.15 K, 7020 kPa, x2 = 0.6863	740.78 ± 4.7
323.15 K, 8000 kPa, x2 = 0.1907	716.39 ± 4.6
323.15 K, 8010 kPa, x2 = 0.1391	714.92 ± 4.6
323.15 K, 8010 kPa, x2 = 0.4326	725.12 ± 4.7
323.15 K, 8010 kPa, x2 = 0.8711	762.24 ± 4.9
323.15 K, 8020 kPa, x2 = 0.3001	720.36 ± 4.6
323.15 K, 8020 kPa, x2 = 0.6863	741.71 ± 4.8
323.15 K, 9000 kPa, x2 = 0.1391	715.8 ± 4.6
323.15 K, 9000 kPa, x2 = 0.1907	717.29 ± 4.6
323.15 K, 9000 kPa, x2 = 0.4326	726.05 ± 4.7
323.15 K, 9000 kPa, x2 = 0.6863	742.63 ± 4.8
323.15 K, 9000 kPa, x2 = 0.8711	763.15 ± 4.9
323.15 K, 9010 kPa, x2 = 0.3001	721.28 ± 4.6
323.15 K, 10000 kPa, x2 = 0.1391	716.7 ± 4.6
323.15 K, 10000 kPa, x2 = 0.1907	718.16 ± 4.6
323.15 K, 10000 kPa, x2 = 0.3001	722.18 ± 4.6

Reference: the NIST ThermoML archive (doi:10.1021/acs.jced.8b00554)
